Source: patent US5190929A, “Cyclophosphamide analogs useful as anti-tumor agents” (Research Corporation Technologies, Inc., priority 1988, dated 1993)

How the values were obtained:
[1] = tested on: P388 murine leukemia cells, cyclophosphamide-resistant (/CP); assay: In vitro soft agar colony-forming cytotoxicity assay, cyclophosphamide-resistant P388 cells; type: cell-based, mouse; design: LC99: unit not given here; conditions: for LC99: P388 /CP (cyclophosphamide-resistant), 1-hour exposure, 99% cell kill; for RF, resistance factor = ratio of LC99 in resistant/sensitive cells: P388, 60 min
Description: (§1) A soft agar colony-forming assay according to the procedure of Chu and Fischer, Biochem. Pharmacol., 17, 753-767 (1968) was used and modified where necessary. Cultured mouse L1210 and P388 sensitive cells were purchased from EG&G Mason Research Institute, Tumor Bank, Worchester, Mass. Cultured cyclophosphamide resistant L1210 and P388 cells were obtained from Dr. Robert Struck of Southern Research Institute, Birmingham, Ala. Typically, the desired cells (2-3×10^6 cells/ml) in exponential growth and suspended in 6.5 ml of Fischer's medium (Gibco Lab., Grand Island, N.Y.) were divided into six groups (1 control and 5 treated groups) containing an equal number of cells in 1 ml. These cells were then treated with varying doses of drug (solution of perhydrooxazine in media or 20% ethanol-water), diluted with media to give a total volume of 10 ml, and incubated for one hour at 37° C. The cells were washed three times with 3 ml of supplemented Fischer's medium (containing 10% horse serum) by centrifuge (800×g), removal of media by suction, and resuspension of the pellet in media (5 ml). A 1-ml portion was used to determine the cell count with a Coulter counter. From the remainder, a 5-ml suspension of cells was prepared at a density of 10^5 cells/ml, and between 10^2 and 10^5 cells were placed on soft agar and incubated at 37° C. Colonies were counted after 10 days. The log of the surviving fraction was plotted vs. drug concentration and from this plot the LC99 was obtained. (By definition, the LC99 value represents the concentration of drug necessary to effect a 99% cell kill.)

L1210 tumor cells = assay: In vivo antitumor activity, survival of L1210 bearing mice; design: species or system mouse (male B6 D2 F1); conditions: for response vs control in vivo at 17 µmol/kg / response vs control in vivo at 34 µmol/kg / response vs control in vivo at 51 µmol/kg / response vs control in vivo at 68 µmol/kg: Mus musculus, L1210, ip, read-out: Survival of L1210 bearing mice - % T/C × 100; for response vs control in vivo at 17 µmol/kg: 17 umol/kg; for Long Term Survivors: experiment terminated on day 30; for toxicity compared with the reference activated cyclophosphamide: higher doses
Procedure: (§2) Typically 4 groups of 10 male B6 D2 F1 mice (Jackson Breeding Lab., Bar Harbor Me) were injected i.p. with 1×10^5 L1210 tumor cells. Twenty four hours after injection three groups were treated (i.p. injection) with varying doses of drug, and the fourth group received the vehicle alone. The mice were observed daily and death dates were recorded. The experiment was terminated on day 30 and median survival time (days) and % T/C (ratio of median survival time of treated group divided by the […] survival time of the control group) was calculated. The drug was delivered using either an isotonic saline solution or a carboxymethyl cellulose suspension depending on the solubility of the drug.

[2] = tested on: P388 murine leukemia cells, cyclophosphamide-sensitive (/0); assay: In vitro soft agar colony-forming cytotoxicity assay, cyclophosphamide-sensitive P388 cells; type: cell-based, mouse; design: unit not given here; conditions: P388 /0 (sensitive); 1-hour exposure, 99% cell kill
Description: as §1

[3] = tested on: L1210 murine leukemia cells, cyclophosphamide-sensitive (/0); assay: In vitro soft agar colony-forming cytotoxicity assay, cyclophosphamide-sensitive L1210 cells; type: cell-based, mouse; design: unit not given here; conditions: L1210 /0 (sensitive); 1-hour exposure, 99% cell kill
Description: as §1

[4] = tested on: L1210 murine leukemia cells, cyclophosphamide-resistant (/CP); assay: In vitro soft agar colony-forming cytotoxicity assay, cyclophosphamide-resistant L1210 cells; type: cell-based, mouse; design: LC99: unit not given here; conditions: for LC99: L1210 /CP (cyclophosphamide-resistant), 1-hour exposure, 99% cell kill; for RF, resistance factor = ratio of LC99 in resistant/sensitive cells: L1210, 60 min
Description: as §1

CP-resistant L1210 cells = assay: In vivo antitumor activity, survival of mice bearing CP-resistant L1210 cells; design: species or system mouse (male B6 D2 F1); conditions: for Survival of L1210 bearing mice - % T/C × 100: CP-resistant L1210, i.p.
Procedure: as §2

Row | Compound | LC99 [1] | RF, resistance factor = ratio of LC99 in resistant/sensitive cells [1] | response vs control in vivo at 17 µmol/kg (L1210 tumor cells; i.p.) [%] | response vs control in vivo at 34 µmol/kg (L1210 tumor cells; 34 umol/kg, i.p.) [%] | LC99 [2] | LC99 [3] | LC99 [4] | RF, resistance factor = ratio of LC99 in resistant/sensitive cells [4] | Long Term Survivors (L1210 tumor cells; 68 umol/kg, i.p.) | response vs control in vivo at 51 µmol/kg (L1210 tumor cells; 51 umol/kg, i.p.) [%] | response vs control in vivo at 68 µmol/kg (L1210 tumor cells; 68 umol/kg, i.p.) [%] | antitumor activity in L1210 leukemic mice (L1210 tumor cells; all doses tested) | toxicity compared with the reference activated cyclophosphamide (L1210 tumor cells) | Long Term Survivors (L1210 tumor cells; 51 umol/kg, i.p.) | further results
1 | O=P1(N(CCCl)CCCl)NC(OO)CC(c2ccccc2)O1 (centres unmarked) [Compound 4, 4-hydroperoxy-6-phenylcyclophosphamide] | 7 | 0.6 | 117 | 144 | 11 | 17 | 15 | 0.9 |  |  |  |  |  |  | Survival of L1210 bearing mice - % T/C × 100 (L1210 tumor cells; 51 umol/kg, i.p.): toxic
2 | O=P1(N(CCCl)CCCl)NC(OO)CC(c2ccncc2)O1 (centres unmarked) [Compound 9, 4-Hydroperoxy-6-(4-pyridyl)cyclophosphamide] | 27 | 0.6 | 131 | 150 | 44 | 53 | 57 | 1.1 | 1/6 | 164 | 193 | highly active at all doses tested | less toxic at higher doses than the reference activated cyclophosphamide |  | Survival of L1210 bearing mice - % T/C × 100 (CP-resistant L1210 cells; 17 umol/kg): 119%; Survival of L1210 bearing mice - % T/C × 100 (CP-resistant L1210 cells; 34 umol/kg): 131%; Survival of L1210 bearing mice - % T/C × 100 (CP-resistant L1210 cells; 51 umol/kg): 138%; Survival of L1210 bearing mice - % T/C × 100 (CP-resistant L1210 cells; 68 umol/kg): 150%; survival / lifespan of mice bearing cyclophosphamide resistant L1210 leukemia (CP-resistant L1210 cells): prolongs the survival of these mice bearing the drug-resistant leukemia at all doses tested
3 | O=P1(N(CCCl)CCCl)NC(OO)CCO1 (centres unmarked) [Ref, reference compound] | 60 | 10 | 136 | 194 | 6 | 8 | 141 | 17 |  | 50 |  |  |  |  | toxicity (CP-resistant L1210 cells; 51 umol/kg dose, mice bearing cyclophosphamide resistant L1210): toxicity is apparent at the 51 umol/kg dose; Survival of L1210 bearing mice - % T/C × 100 (CP-resistant L1210 cells; 17 umol/kg): 112%; Survival of L1210 bearing mice - % T/C × 100 (CP-resistant L1210 cells; 34 umol/kg): 100%; Survival of L1210 bearing mice - % T/C × 100 (CP-resistant L1210 cells; 51 umol/kg): 75%; survival / lifespan of mice bearing cyclophosphamide resistant L1210 leukemia (CP-resistant L1210 cells): no significant increase in lifespan is observed
4 | CC1CC(OO)NP(=O)(N(CCCl)CCCl)O1 (centres unmarked) [Compound 1, 4-hydroperoxy-6-methylcyclophosphamide] | 69 | 2.7 |  | 138 | 26 | 32 | 177 | 5.5 |  | 56 | 50 |  |  |  | Long Term Survivors (L1210 tumor cells; 34 umol/kg, i.p.): 2/6
5 | O=P1(N(CCCl)CCCl)NC(OO)CC(c2cccnc2)O1 (centres unmarked) [Compound 8, 4-hydroxyperoxy-6-(3-pyridyl)cyclophosphamide] | 24 | 0.7 |  | 131 | 33 | 36 | 56 | 1.6 |  | 69 | 63 |  |  |  | 
6 | CC(C)C1CC(OO)NP(=O)(N(CCCl)CCCl)O1 (centres unmarked) [Compound 2, 4-hydroperoxy-6-isopropylcyclophosphamide] | 61 | 0.7 |  |  | 86 | 105 | 115 | 1.1 |  |  |  |  |  |  | 
7 | O=[N+]([O-])c1ccc(C2CC(OO)NP(=O)(N(CCCl)CCCl)O2)cc1 (centres unmarked) [Compound 5, 4-hydroperoxy-6-p-nitrophenylcyclophosphamide] | 3 | 0.4 |  | 163 | 7 | 8 | 8 | 1.0 | 4/6 | 194 | 225 | highly active at all doses tested | less toxic at higher doses than the reference activated cyclophosphamide | 2/6 | Long Term Survivors (L1210 tumor cells; 34 umol/kg, i.p.): 1/6
8 | O=P1(N(CCCl)CCCl)NC(OO)CC(CCc2ccccc2)O1 (centres unmarked) [Compound 3, 4-hydroperoxy-6-phenethylcyclophosphamide] | 5 | 0.6 |  | 106 | 9 | 11 | 9 | 1.1 |  | 25 |  |  |  |  | 
9 | Cc1ccc(C2CC(OO)NP(=O)(N(CCCl)CCCl)O2)cc1 (centres unmarked) [Compound 6, 4-Hydroperoxy-6-p-tolylcyclophosphamide] | 3 | 1.0 |  | 150 | 3 | 5 | 6 | 1.2 | 1/6 | 175 | 180 | highly active at all doses tested | less toxic at higher doses than the reference activated cyclophosphamide | 1/6 | 
10 | O=P1(N(CCCl)CCCl)NC(OO)CC(c2ccc(F)cc2)O1 (centres unmarked) [Compound 7, 4-hydroperoxy-6-p-fluorophenylcyclophosphamide] | 3 | 0.5 |  | 163 | 6 | 7 | 8 | 1.1 | 1/6 | 188 | 63 |  |  | 1/6 | antitumor activity in L1210 leukemic mice (L1210 tumor cells; lower doses tested): highly active at the lower doses tested
